Data from patent US5919770A, “Metabolites of ginseng saponins by human intestinal bacteria and its preparation for an anticancer” (Il Hwa Co., Ltd., priority 1996, dated 1999).
pIC50: −log10 of the molar value.

Assays:
[1] = system: bovine artery endotheliocyte (BAE); assay: Inhibition on the migration of bovine artery endotheliocyte (vascularization of tumor); format: cell-based; conditions: for Migration-inhibition (% control), IC10: at the 10% inhibitory concentration (IC10); for Migration-inhibition (% control), IC10 / Migration-inhibition (% control), IC50: 24 hours; for Migration-inhibition (% control), IC50: at the 50% inhibitory concentration (IC50)
Description: Inhibition on the vascularization of tumor (Test for the inhibition on the migration)
Bovine artery endotheliocyte (BAE) was used for this experiment. BAE (5×10^3 cells) was cultured in 6-well plate for 24 hours and cells attached to the plate were detached by a razor. Said medium was replaced by a new one and after one hour, a solution of intestinal flora metabolite of ginseng saponin was added to the desired inhibitory concentration of 10% and 50%, respectively for 24-hour cultivation. After completing the cultivation, cells were fixed with methanol, stained with Giemsa method and counted the cells migrated from the detached line under microscope.

[2] = system: Human adenosarcoma tissue cell (HT1080); assay: Inhibition on the extravasation of basement membrane (haptoinvasion, matrigel/FN filter); format: cell-based; conditions: for pIC50 / inhibition at 10 µM / inhibition at 100 µM / inhibition at 1000 µM / inhibition at 1 µM: Homo sapiens; for pIC50: HT-1080, 4 h, 50% inhibition of extravasation, read-out: ED50 (50% extravasation-inhibitory concentration); for inhibition at 10 µM / inhibition at 100 µM / inhibition at 1000 µM / inhibition at 1 µM: HT-1080, read-out: Inhibition rate (%)
Description: Inhibition on the extravasation of basement membrane
The transwell culture chamber was used for this experiment with a haptoinvasion method (reference: Cancer Res., 47, 3239, (1987)). The lower side of a filter having a hole of 8.0 μm in diameter was coated with 5 μg of matrigel for the fabrication of matrigel/FN filter. Human […] tissue cell (HT1080), treated in the intestinal flora metabolite of ginseng saponin in a concentration of 1-1000 μM at 37° C. for 30 minutes, was charged to the upper side of each filter with 1×10^5 cells/100 μL. Then, said filters were added to 24-well plate having 600 μL of MEM medium supplemented with 0.1% bovine serum albumin and them cultured for 4-hour cultivation. After completing the cultivation, cells were fixed with methanol and stained with hematoxylin, a tissue staining agent. Following the removal of cells at the upper side with a cotton pole, cells infiltrating into the lower side were counted under microscope.

[3] = system: bovine artery endotheliocyte (BAE); assay: Inhibition on the proliferation of bovine artery endotheliocyte (BAE), MTT; format: cell-based; conditions: for pIC50: Bos taurus, BAE, 72 hours, MTT; for IC50 (C)/IC50 (BAE), C = HL: ratio IC50 (HL)/IC50 (BAE); for IC50 (C)/IC50 (BAE), C = K562: ratio IC50 (K562)/IC50 (BAE)
Description: (§1) Inhibition on the vascularization of tumor (Test for the inhibition on the proliferation)
(§2) Human lymphocyte (HL), leukemia cell line (K562) and bovine artery endotheliocyte (BAE) were used for this experiment. HL (1×10^5 cells), leukemia cell line (K562) (2×10^5 cells) and BAE (5×10^3 cells) were cultured in a medium (HL, K562: RPMI 1640 medium containg 10% fetal bovine, BAE: DMEM medium containing 10% fetal bovine) containing intestinal flora metabolites of ginseng saponin concentrated with 2-fold dilution in 5% CO2 saturated with steam (HL, K562: 24 hours, BAE: 72 hours). The number of each survived cell was purified by MTT method to calculate 50% inhibition concentration (IC50), impaired rate of cells (IC50 (HL)/IC50 (BAE) and IC50 (K562)/IC50 (BAE).

[4] = system: leukemia cell line (K562); assay: Inhibition on the proliferation of leukemia cell line K562, MTT; format: cell-based; conditions: for pIC50: Homo sapiens, K562, 24 hours, MTT; for inhibitory activities on the proliferation of tumor cells: in words
Description: as §1, §2

[5] = system: leukemia cell line (P388); assay: Antitumor activity of mouse spleen lymphocytes on leukemia cell line P388 (MTT); format: cell-based, mice; conditions: for activity at 2.5 µM: P388, 2.5 μM for 16 hours (Compound K 1.56, Compound Y 1.86, Ginsenoside Mc 1.86, 20(S)-protopanaxatriol 1.19 μg/ml), control 31.3%; for fold induction at 2.5 µM: P388, 16 h, read-out: Antitumor activity, times as high as control
Description: Antitumor activity on leukemia cell line (P388) in lymphocyte of mice
Spleen lymphocytes of mice and leukemia cell line (P388) were used for this experiment. Spleen lymphocytes (4×10^6 cells) and leukemia cells (P388) (2×10^8 cells) were cultured in a medium (RPMI 1640 supplemented with 20 μM mercaptoethanol and 10% fetal bovine serum) containing intestinal flora metabolite of ginseng saponin (2.5 μM) in 5% CO2 saturated with steam for 16 hours. Aside from this, same numbers of spleen lymphocytes or leukemia cell line were cultured in a medium containing intestinal flora metabolite of ginseng saponin in same is concentration as a control. The number of each survived cell was purified by MTT method to calculate impaired rate of cells on leukemia cells (P388) of lymphocytes.

Human lymphocyte (HL) = assay: Inhibition on the proliferation of human lymphocyte (HL), MTT; format: cell-based; conditions: 24 hours
Description: as §1, §2

[6] = Toxicity in animal experiments with rats and mice

CC(C)=CCC[C@](C)(O)[C@H]1CC[C@]2(C)[C@@H]1[C@H](O)C[C@@H]1[C@@]3(C)CC[C@H](O)C(C)(C)[C@@H]3[C@@H](O)C[C@]12C [20(S)-protopanaxatriol]
Migration-inhibition (% control), IC10 [1]: -1.6 % control | Migration-inhibition (% control), IC50 [1]: 30.0 % control | No. of infiltrated cancer cell/field ([2]; 1 μM): 103 ± 14 cell/field | No. of infiltrated cancer cell/field ([2]; 10 μM): 93 ± 7 cell/field | No. of infiltrated cancer cell/field ([2]; 100 μM): 18 ± 4 cell/field | No. of infiltrated cancer cell/field ([2]; 1000 μM): 1 ± 1 cell/field | pIC50 [2]: 4.32 | inhibition at 10 µM ([2]; 10 μM): 4% | inhibition at 100 µM ([2]; 100 μM): 81% | inhibition at 1000 µM ([2]; 1000 μM): 99% | pIC50 [3]: 4.44 | IC50 (C)/IC50 (BAE), C = HL [3]: 7.8 | IC50 (C)/IC50 (BAE), C = K562 [3]: 1.4 | pIC50 [4]: 4.31 | inhibitory activities on the proliferation of tumor cells [4]: exhibited inhibitory activities on the proliferation of tumor cells | activity at 2.5 µM [5]: 82.4% | fold induction at 2.5 µM [5]: 2 | pIC50 (Human lymphocyte (HL)): 3.55

CC(C)=CCC[C@](C)(O[C@@H]1O[C@H](CO)[C@@H](O)[C@H](O)[C@H]1O)[C@H]1CC[C@]2(C)[C@@H]1[C@H](O)C[C@@H]1[C@@]3(C)CC[C@H](O)C(C)(C)[C@@H]3CC[C@]12C [Compound K]
Migration-inhibition (% control), IC10 [1]: 4.6 % control | Migration-inhibition (% control), IC50 [1]: 43.2 % control | inhibitory activity of migration ([1]; in words, control Suramin): more potent inhibitory activity of migration than Suramin | No. of infiltrated cancer cell/field ([2]; 1 μM): 73 ± 4 cell/field | No. of infiltrated cancer cell/field ([2]; 10 μM): 45 ± 9 cell/field | No. of infiltrated cancer cell/field ([2]; 100 μM): 0 cell/field | pIC50 [2]: 5.49 | inhibition at 1 µM ([2]; 1 μM): 38% | inhibition at 10 µM ([2]; 10 μM): 62% | inhibition at 100 µM ([2]; 100 μM): 100% | pIC50 [3]: 4.55 | IC50 (C)/IC50 (BAE), C = HL [3]: 1.7 | IC50 (C)/IC50 (BAE), C = K562 [3]: 1.6 | pIC50 [4]: 4.59 | activity at 2.5 µM [5]: 51.5% | fold induction at 2.5 µM [5]: 1.6 | pIC50 (Human lymphocyte (HL)): 4.35

CC(C)=CCC[C@](C)(O[C@@H]1O[C@H](CO[C@@H]2OC[C@H](O)[C@H](O)[C@H]2O)[C@@H](O)[C@H](O)[C@H]1O)[C@H]1CC[C@]2(C)[C@@H]1[C@H](O)C[C@@H]1[C@@]3(C)CC[C@H](O)C(C)(C)[C@@H]3CC[C@]12C [Compound Y, 20-0-[α-L-arabinopyranosyl (1→6)-β-D-glucopyranosyl]-20(S)-protopanaxadiol]
Migration-inhibition (% control), IC10 [1]: -3.7 % control | Migration-inhibition (% control), IC50 [1]: 28.9 % control | No. of infiltrated cancer cell/field ([2]; 1 μM): 125 ± 7 cell/field | No. of infiltrated cancer cell/field ([2]; 10 μM): 92 ± 11 cell/field | No. of infiltrated cancer cell/field ([2]; 100 μM): 24 ± 2 cell/field | No. of infiltrated cancer cell/field ([2]; 1000 μM): 0 cell/field | pIC50 [2]: 4.51 | inhibition at 10 µM ([2]; 10 μM): 21% | inhibition at 100 µM ([2]; 100 μM): 62% | inhibition at 1000 µM ([2]; 1000 μM): 100% | pIC50 [3]: 4.49 | IC50 (C)/IC50 (BAE), C = HL [3]: 2.6 | IC50 (C)/IC50 (BAE), C = K562 [3]: 2.6 | pIC50 [4]: 4.11 | activity at 2.5 µM [5]: 56.6% | fold induction at 2.5 µM [5]: 1.8 | pIC50 (Human lymphocyte (HL)): 4.08

CC(C)=CCC[C@](C)(O[C@@H]1O[C@H](CO[C@@H]2O[C@@H](CO)[C@H](O)[C@H]2O)[C@@H](O)[C@H](O)[C@H]1O)[C@H]1CC[C@]2(C)[C@@H]1[C@H](O)C[C@@H]1[C@@]3(C)CC[C@H](O)C(C)(C)[C@@H]3CC[C@]12C [Ginsenoside Mc, 20-0-[α-L-arabinofuranosyl(1→6)-β-D-glucopyranosyl-20(S)-protopanaxadiol]]
Migration-inhibition (% control), IC10 [1]: -1.6 % control | Migration-inhibition (% control), IC50 [1]: 30.0 % control | No. of infiltrated cancer cell/field ([2]; 1 μM): 114 ± 12 cell/field | No. of infiltrated cancer cell/field ([2]; 10 μM): 44 ± 7 cell/field | No. of infiltrated cancer cell/field ([2]; 100 μM): 3 ± 1 cell/field | No. of infiltrated cancer cell/field ([2]; 1000 μM): 0 cell/field | pIC50 [2]: 5.12 | inhibition at 1 µM ([2]; 1 μM): 3% | inhibition at 10 µM ([2]; 10 μM): 62% | inhibition at 100 µM ([2]; 100 μM): 97% | inhibition at 1000 µM ([2]; 1000 μM): 100% | toxicity [6]: nearly negligible | pIC50 [3]: 4.59 | IC50 (C)/IC50 (BAE), C = HL [3]: 8.5 | IC50 (C)/IC50 (BAE), C = K562 [3]: 18 | pIC50 [4]: 3.32 | inhibitory activities on the proliferation of tumor cells [4]: exhibited inhibitory activities on the proliferation of tumor cells | activity at 2.5 µM [5]: 63.3% | fold induction at 2.5 µM [5]: 2 | pIC50 (Human lymphocyte (HL)): 3.66
